Test results from PMC3726001 (Bioorganic & medicinal chemistry letters, 2010).
≈ marks a conversion by molar mass, not a printed value.

What was measured:
dogs = details: cited from earlier work
guinea pigs = details: cited from earlier work
Aqueous solubility = format: physicochemical
[1] = test system: (+)-METH-induced dopaminergic toxicity; details: rats; repeated administration prior to (+)-METH self-administration; cited from earlier work
[2] = test system: (+)-methamphetamine (METH) self-administration; details: rats; effect not surmounted by METH; cited from earlier work
[3] = target: [3H]DTBZ-binding site on VMAT2 (Rattus norvegicus, UniProt Q01827); test: [3H]DTBZ binding to VMAT2
[3H]DTBZ-binding site on VMAT2, sequence (Q01827 whole entry): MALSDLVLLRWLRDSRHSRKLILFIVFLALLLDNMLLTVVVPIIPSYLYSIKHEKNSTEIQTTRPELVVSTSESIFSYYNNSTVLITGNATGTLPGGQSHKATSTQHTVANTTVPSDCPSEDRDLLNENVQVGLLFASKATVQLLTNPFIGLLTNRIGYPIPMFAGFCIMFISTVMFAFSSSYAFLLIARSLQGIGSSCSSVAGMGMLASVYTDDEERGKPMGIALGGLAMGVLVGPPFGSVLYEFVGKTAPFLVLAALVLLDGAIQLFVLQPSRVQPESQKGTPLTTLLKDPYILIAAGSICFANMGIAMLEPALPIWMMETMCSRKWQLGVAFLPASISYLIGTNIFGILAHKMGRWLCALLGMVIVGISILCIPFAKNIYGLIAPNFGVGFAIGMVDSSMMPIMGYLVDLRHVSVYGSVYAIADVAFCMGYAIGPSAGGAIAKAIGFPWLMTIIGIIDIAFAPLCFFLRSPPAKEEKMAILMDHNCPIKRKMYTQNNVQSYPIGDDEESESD

VMAT2 = VMAT2 (Rattus norvegicus, UniProt Q01827); test: Inhibition of [3H]DA uptake into synaptic vesicles; format: biochemical
VMAT2, sequence (Q01827 whole entry): as above

## CN1[C@@H](CCc2ccccc2)CCC[C@H]1CCc1ccccc1 [compound 1, N-methyl-cis-2,6-diphenethylpiperidine]
dogs
  respiratory analeptic activity: marked respiratory analeptic activity
Guinea pigs
  pharmacological action in guinea pigs: peripheral spasmolytic, ‘central stimulating’ action
Aqueous solubility
  solubility: 300 µg/mL (≈ 976 µM)

## CN1[C@@H](CC(=O)c2ccccc2)CCC[C@H]1C[C@H](O)c1ccccc1 [compound 2, lobeline]
[1]
  effect on (+)-METH-induced dopaminergic toxicity: prevents
[2]
  effect on (+)-METH self-administration: inhibits

## CN1[C@@H](CCc2cccnc2)CCC[C@H]1CCc1cccnc1 [compound 14]
[3]; compared to lobelane
  fold less potent than lobelane in binding to the [3H]DTBZ binding site: about 30 fold

## CN1[C@@H](CCc2ccncc2)CCC[C@H]1CCc1ccncc1 [compound 21]
[3]; compared to lobelane
  binding to the [3H]DTBZ binding site compared to lobelane: marginally lower in binding affinity

## CN1[C@@H](CCc2ccc3ccccc3n2)CCC[C@H]1CCc1ccc2ccccc2n1.Cl [compound 22]
[3]
  affinity for the [3H]DTBZ binding site: submicromolar affinity
[3]; compared to lobelane
  binding to the [3H]DTBZ binding site compared to lobelane: almost as avidly as lobelane
Aqueous solubility
  water solubility characteristics compared to lobelane: improved water solubility
VMAT2
  potency in inhibiting [3H]DA uptake compared to lobelane: equipotent with lobelane

## CN1[C@@H](CCc2ccnc3ccccc23)CCC[C@H]1CCc1ccnc2ccccc12.Cl [compound 23]
[3]; compared to lobelane
  binding to the [3H]DTBZ binding site compared to lobelane: almost as avidly as lobelane
Aqueous solubility
  water solubility characteristics compared to lobelane: improved water solubility
VMAT2
  potency in inhibiting [3H]DA uptake compared to lobelane: equipotent with lobelane

## CN1[C@@H](CCc2c[nH]c3ccccc23)CCC[C@H]1CCc1c[nH]c2ccccc12 [compound 24]
[3]
  affinity for the [3H]DTBZ binding site: greatly diminished affinity
